Measurements as given in US20240300977A1, “INHIBITORS OF DNA-DEPENDENT PROTEIN KINASE AND COMPOSITIONS AND USES THEREOF” (Intellia Therapeutics, Inc., priority 2021, published 2024).

What was measured:
T cells [1] = experiment: Insertion percent in T cells of Example 17; format: cell-based, human; details: T cells from Example 12; FIG. 9B
Source text: (§1) On day 8 post-editing, T cells from Example 12 from the untreated, unedited, Compound 3 and Compound 4 guides samples were collected, spun down and the pellets were directly used as input material for gDNA isolation using “Zymo Quick DNA/RNA Mag Beads Kit” (Zymo Cat. R2131). The UnIT structural variant characterization assay was applied to these gDNA samples. High molecular weight genomic DNA is simultaneously fragmented and sequence-tagged (‘tagmented’) with the Tn5 transposase and an adapter with a partial Illumina P5 sequence and a 12 bp unique molecular identifier (UMI). Two sequential PCRs using a primer to P5 and hemi-nested gene specific primers (GSP) imparting the Illumina the P7 sequence to create two Illumina compatible NGS libraries per sample (Illumina, Ref 15033624). Sequencing across both directions of the CRISPR/Cas9 targeted cut site with the two libraries allows the inference and quantification of structural variants in DNA repair outcomes after genome editing. If the two fragments were aligned to different chromosomes, the SV was classified as an “inter-chromosomal translocation.” The magnitude of structural variation was shown in FIG. 9A and Table 18.

TRBC = experiment: Off-target site validation, rhAmpSeq; details: gRNA G016239 targeting TRBC; of 92 off-target sites; with the named DNA-PKI or none
TRAC = details: human
NK cells [2] = experiment: Percent editing at AAVS1 in NK cells by NGS; format: cell-based, human
Experimental: Genomic DNA was extracted using QuickExtract™ DNA Extraction Solution (Lucigen, Cat. QE09050) according to manufacturer's protocol.
To quantitatively determine the efficiency of editing at the target location in the genome, next generation sequencing was utilized to identify the presence of insertions and deletions introduced by gene editing. […] Primer sequence design was done as is standard in the field.
Additional PCR was performed according to the manufacturer's protocols (Illumina) to add chemistry for sequencing. The amplicons were sequenced on an Illumina MiSeq instrument. The reads were aligned to the human (e.g., hg38) reference genome after eliminating those having low quality scores. The resulting files containing the reads were mapped to the reference genome (BAM files), where reads that overlapped the target region of interest were selected and the number of wild-type reads versus the number of reads which contain an insertion or deletion (“indel”) was calculated.
The editing percentage (e.g., the “editing efficiency” or “percent editing”) is defined as the total number of sequence reads with insertions or deletions (“indels”) over the total number of sequence reads, including wild type.

T cells [3] = experiment: SpyCas9 TRAC editing (indel) in T cells by NGS with or without Compound 4; format: cell-based, human; details: day 4 NGS
Experimental: Upon thaw, T cells were plated at a density of 1.0×10^6 cells/mL in T cell growth media (TCGM) composed of CTS OpTmizer T Cell Expansion SFM and T Cell Expansion Supplement (ThermoFisher Cat. A1048501), 5% human AB serum (GeminiBio, Cat. 100-512) 1× Penicillin-Streptomycin, 1× Glutamax, 10 mM HEPES, 200 U/mL recombinant human interleukin-2 (Peprotech, Cat. 200-02), 5 ng/ml recombinant human interleukin 7 (Peprotech, Cat. 200-07), and 5 ng/mL recombinant human interleukin 15 (Peprotech, Cat. 200-15). T cells were rested in this media for 24 hours, at which time they were activated with T Cell TransAct™, human reagent (Miltenyi, Cat. 130-111-160) added at a 1:100 ratio by volume.
48 hours post-activation, T cells were harvested, centrifuged at 500 g for 5 min, and resuspended at a concentration of 6.41×10^5 T cells/mL in T cell plating media (TCPM): a serum-free version of TCGM containing 400 U/mL recombinant human interleukin-2 (Peprotech, Cat. 200-02), 10 ng/mL recombinant human interleukin 7 (Peprotech, Cat. 200-07), and 10 ng/mL recombinant human interleukin 15 (Peprotech, Cat. 200-15). 50 μL of T cells in TCPM (3.2×10^4 T cells) were added per well to be treated in flat-bottom 96-well plates.
LNPs were generated as described in Example 1 at a ratio of 50/38.5/10/1.5 (Lipid A/cholesterol/DSPC/PEG2k-DMG).
Mix “A” was serially diluted 1:2 in TCTM, and mixed 1:1 by volume with mix “B”. 25 μL of the resulting solution was added to 3.2×10^4 T cells in 96-well plates.
Next, a repair template in the form of an adeno-associated virus (AAV) encoding the HD3 TCR (SEQ ID NO: 18 was diluted in TCTM to 3.84×10^11 genome copies/mL in the presence or absence of Compound 4 diluted to 2 μM. 25 μL of the resulting solution was added to T cells that were treated with LNPs in the prior step. To enable editing assessments by NGS without the interference of repair templates, an arm of this experiment received 25 μL of TCTM with or without Compound 4 diluted to 2 μM in the absence of AAVs.
Following the addition of LNPs, repair templates and Compound 4, T cells were incubated at 37° C. for 48 hours, at which time T cells were centrifuged at 500 g for 5 min, resuspended in 200 μL of TCGM and returned to the incubator.

T cells [4] = experiment: TRAC LNP editing and GFP insertion in activated T cells with DNA-PK inhibitors, flow cytometry; details: GFP positive of the CD3 negative T cells, day 5 post-edit
NK cells [5] = experiment: GFP insertion at AAVS1 in NK cells, flow cytometry; format: cell-based, human; details: LNP + AAV, seven days
Experimental: NK cells were assessed for the impact of DNA protein kinase inhibitors (DNA-PKI) on indel and insertion rates. […] A subset of samples was also treated with AAV encoding a GFP coding sequence flanked by regions of homology to the AAVS1 edit site (SEQ ID NO: 16). NK cells were isolated from a commercially obtained leukopak using the EasySep Human NK Cell Isolation Kit ([…], Cat. No. 17955) according to the manufacturer's protocol. […] NK cells were plated at 50,000 cells per well in triplicate in OpTmizer supplemented as described above with DNA-PKI at concentrations indicated in Tables 10 and 11. […] For a subset of samples, AAV encoding GFP flanked by regions homologous to the AAVS1 edit site were added at a multiplicity of infection (MOI) of 600,000 genome copies following editing. At seven days post LNP composition treatment, cells were phenotyped by flow cytometry to measure GFP insertion rates. Briefly, NK cells were incubated with antibodies targeting CD3 (Biolegend, Cat. No. 317336) and CD56 (Biolegend, Cat. No. 318310). […] NK cells were gated on size, CD3/CD56 status, and GFP expression. High GFP-expressing cells were gated as targeted GFP […] locus and low GFP-expressing cells were gated as episomal retention.

T cells [6] = experiment: Off-target structural variation by UnIT; format: cell-based, human; details: T cells from Example 12, day 8 post-editing; TRAC sgRNA G013006
Source text: as §1

Cc1cc2ncnn2cc1Nc1ncc2c(n1)n(C1CCC3(CC1)CC3)c(=O)n2C [Compound 4, 7-methyl-2-((7-methyl-[1,2,4]triazolo[1,5-a]pyridin-6-yl)amino)-9-(spiro[2.5]octan-6-yl)-7,9-dihydro-8H-purin-8-one]
Insertion Percent (Average) (T cells [1]): 67.82%
Sites Validated (TRBC): 0
Sites Validated (TRAC): 0
Mean percent editing at AAVS1 (NK cells [2]; DNA-PKI 0.125 uM): 96.77%
Mean percent editing at AAVS1 (NK cells [2]; DNA-PKI 0.5 uM): 97.67%
Mean TRAC Editing % (T cells [3]; sgRNA 0 μg/mL, Spy Cas9 + Compound 4): 0.20%
Mean TRAC Editing % (T cells [3]; sgRNA 0.026 μg/mL, Spy Cas9 + Compound 4): 48.55%
Mean TRAC Editing % (T cells [3]; sgRNA 0.052 μg/mL, Spy Cas9 + Compound 4): 63.45%
Mean TRAC Editing % (T cells [3]; sgRNA 0.104 μg/mL, Spy Cas9 + Compound 4): 79.25%
Mean TRAC Editing % (T cells [3]; sgRNA 0.209 μg/mL, Spy Cas9 + Compound 4): 89.00%
Mean TRAC Editing % (T cells [3]; sgRNA 0.418 μg/mL, Spy Cas9 + Compound 4): 94.45%
Mean TRAC Editing % (T cells [3]; sgRNA 0.835 μg/mL, Spy Cas9 + Compound 4): 96.15%
Mean TRAC Editing % (T cells [3]; sgRNA 1.67 μg/mL, Spy Cas9 + Compound 4 (2 μM stock, 25 μL added)): 96.10%
Mean % CD3^−/GFP+ Cells (n = 3) (T cells [4]; compound 0.0625 uM): 58.13%
Mean % CD3^−/GFP+ Cells (n = 3) (T cells [4]; compound 1 uM): 80.07%
Percent of NK cells with high GFP expression (Mean) (NK cells [5]; DNA-PKI 0.125 uM): 88.10%
Percent of NK cells with high GFP expression (Mean) (NK cells [5]; DNA-PKI 0.5 uM): 90.27%
Unintended Structural Variance (Average) (T cells [6]): 1.46%
